In patent US5945402A (Genetech, Inc., priority 1995, dated 1999):

Assays:
[1] = system: cervix; conditions: 3000 units in the cervical os, Perezgrovas and Anderson (1982); cited from earlier work
[2] = RP-HPLC stability of topical relaxin (3% methylcellulose gel); format: physicochemical; conditions: in contrast to shortened B-chain human relaxin
Method: The RP-HPLC method used for analyzing the liquid relaxin formulation, described in Example I, was modified for use with topical relaxin samples. Due to the high viscosity of the gel, samples were diluted ten-fold with water, vortexed for ^~ 5 minutes to homogenize the gel, and left undisturbed to let the bubbles rise. Analysis of these samples was performed by injecting 250 μl onto a C4-300 SynChropak (4.6×250 mm) column at room temperature. The initial equilibration buffer was 18% acetonitrile, 0.1% trifluoroacetic acid. The elution was carried out by running a 1%/min. increasing linear acetonitrile gradient to a final concentration of 45% acetonitrile after 30 minutes. The flow rate was held constant at 1.0 ml/min. and the absorbance was monitored at 214 nm. The "slowdown" step (the time it takes to draw the viscous gel into the metering device) was increased from […].
Three significant stability experiments were performed on the topical relaxin formulation. The first was to measure the stability of these preparations after being left out at room temperature for five weeks. The sample remained in the original syringe, subject to the fluctuations of temperature and light.
The second study was a measure of the stability of topical relaxin under well controlled conditions at 5° C. and 25° C. […]

[3] = system: cervix; conditions: 2-mg dose in methylcellulose gel, MacLennan et al. (1981); cited from earlier work
[4] = system: rabbit cervix; test: Efficacy on ripening of the rabbit cervix, intravaginal gel; format: in vivo; conditions: initial study, 300 μg/ml topical gel, 0.5 ml intravaginally, eighteen hours after application
Method: Mature pregnant female New Zealand rabbits weighing 4.5 to 6.0 kg were studied. […] Both hormones were applied intravaginally by means of a syringe and a catheter in a volume of 0.5 ml. Control animals received the vehicle alone. After 16-18 hours, the animals were sacrificed using a lethal dose of pentobarbital. […] Paraffin sections were cut and stained with hematoxylin/eosin and alcian blue PAS. Sections were evaluated for general morphology, and specifically for the degree of separation of muscular tissue and collagen fibrils in the submucosa and for the presence of characteristic PAS positive giant cells, which are multinucleate cells of macrophage origin that normally infiltrate the cervix during labor. The measurement of giant cells is accomplished using the procedure described by MacLennan et al., Am J. Obstet. Gynecol., 152: 691-696 (1985).

porcine relaxin
time to increased dilatation of the cervix after infusion [1]: ≤ 8 h
degradation of 600 μg/ml porcine relaxin in 3% Methocel gel by HPLC [2]: degraded very little
effect on cervical score [3]: improve the cervical score
cervical ripening, morphology of the pregnant cervix [4]: significant dilation and cervical ripening were observed
